Measured values from PubChem BioAssay (NCI).
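Compound exposure: 48 hours, 5 concentrations, 96-well plates. The concentration for full growth arrest is given as TGI.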

Experiments:
Assay in all cases: growth of human tumour cells (NCI), 48 h
NCI-H522 lung = test system: NCI-H522 lung
OVCAR-8 ovarian = test system: OVCAR-8 ovarian
M14 melanoma = test system: M14 melanoma
DU-145 prostate = test system: DU-145 prostate
K-562 leukemia = test system: K-562 leukemia
HCC-2998 colon = test system: HCC-2998 colon
OVCAR-5 ovarian = test system: OVCAR-5 ovarian
HS 578T breast = test system: HS 578T breast
HL-60(TB) leukemia = test system: HL-60(TB) leukemia
LOX IMVI melanoma = test system: LOX IMVI melanoma
U251 CNS = test system: U251 CNS
KM12 colon = test system: KM12 colon
TK-10 renal = test system: TK-10 renal
SK-OV-3 ovarian = test system: SK-OV-3 ovarian
PC-3 prostate = test system: PC-3 prostate
A549 NSCLC = test system: A549 NSCLC
DMS 273 small cell lung = test system: DMS 273 small cell lung
UO-31 renal = test system: UO-31 renal
T-47D breast = test system: T-47D breast
SF-539 CNS = test system: SF-539 CNS
LXFL 529 NSCLC = test system: LXFL 529 NSCLC
ACHN renal = test system: ACHN renal
786-0 renal = test system: 786-0 renal
HOP-92 NSCLC = test system: HOP-92 NSCLC
BT-549 breast = test system: BT-549 breast
MOLT-4 leukemia = test system: MOLT-4 leukemia
HT29 colon = test system: HT29 colon
MCF7 breast = test system: MCF7 breast
SNB-19 CNS = test system: SNB-19 CNS
SW-620 colon = test system: SW-620 colon
CAKI-1 renal = test system: CAKI-1 renal
OVCAR-3 ovarian = test system: OVCAR-3 ovarian
SK-MEL-28 melanoma = test system: SK-MEL-28 melanoma
UACC-257 melanoma = test system: UACC-257 melanoma
DMS 114 small cell lung = test system: DMS 114 small cell lung
HOP-62 NSCLC = test system: HOP-62 NSCLC
UACC-62 melanoma = test system: UACC-62 melanoma
OVCAR-4 ovarian = test system: OVCAR-4 ovarian
RXF 393 renal = test system: RXF 393 renal
COLO 205 colon = test system: COLO 205 colon
SF-268 CNS = test system: SF-268 CNS
SK-MEL-2 melanoma = test system: SK-MEL-2 melanoma
EKVX NSCLC = test system: EKVX NSCLC
DLD-1 colon = test system: DLD-1 colon
NCI-H226 lung = test system: NCI-H226 lung
MDA-MB-231 breast = test system: MDA-MB-231 breast
KM20L2 colon = test system: KM20L2 colon
NCI/ADR-RES ovarian = test system: NCI/ADR-RES ovarian
SNB-75 CNS = test system: SNB-75 CNS
CCRF-CEM leukemia = test system: CCRF-CEM leukemia
HCT-15 colon = test system: HCT-15 colon
MALME-3M melanoma = test system: MALME-3M melanoma
HOP-18 NSCLC = test system: HOP-18 NSCLC
SN12C renal = test system: SN12C renal
MDA-MB-435 = test system: MDA-MB-435
HCT-116 colon = test system: HCT-116 colon
A498 renal = test system: A498 renal
RPMI-8226 leukemia = test system: RPMI-8226 leukemia
MDA-N = test system: MDA-N
NCI-H460 lung = test system: NCI-H460 lung
M19-MEL melanoma = test system: M19-MEL melanoma
SF-295 CNS = test system: SF-295 CNS
SK-MEL-5 melanoma = test system: SK-MEL-5 melanoma
IGROV1 ovarian = test system: IGROV1 ovarian
NCI-H23 lung = test system: NCI-H23 lung
SR leukemia = test system: SR leukemia
SNB-78 CNS = test system: SNB-78 CNS
XF 498 CNS = test system: XF 498 CNS

## NC(=O)/C=C/c1c[nH]c2nccnc12
NCI-H522 lung
  TGI: 45.9 µM
OVCAR-8 ovarian
  TGI: > 87.5 µM
M14 melanoma
  TGI: 30.5 µM
DU-145 prostate
  TGI: > 34 µM
K-562 leukemia
  TGI: > 18 µM
HCC-2998 colon
  TGI: 5.28 µM
OVCAR-5 ovarian
  TGI: 0.662 µM
HS 578T breast
  TGI: 4.6 µM
HL-60(TB) leukemia
  TGI: > 38.7 µM
LOX IMVI melanoma
  TGI: 4.63 µM
U251 CNS
  TGI: > 100 µM
KM12 colon
  TGI: > 46.3 µM
TK-10 renal
  TGI: 6.26 µM
SK-OV-3 ovarian
  TGI: > 100 µM
PC-3 prostate
  TGI: 26.1 µM
A549 NSCLC
  TGI: > 100 µM
DMS 273 small cell lung
  TGI: 10.5 µM
UO-31 renal
  TGI: 0.609 µM
T-47D breast
  TGI: 23.5 µM
SF-539 CNS
  TGI: 6.15 µM
LXFL 529 NSCLC
  TGI: 0.611 µM
ACHN renal
  TGI: > 53.6 µM
786-0 renal
  TGI: > 100 µM
HOP-92 NSCLC
  TGI: > 28.8 µM
BT-549 breast
  TGI: 8.09 µM
MOLT-4 leukemia
  TGI: 1.38 µM
HT29 colon
  TGI: > 25.2 µM
MCF7 breast
  TGI: > 100 µM
SNB-19 CNS
  TGI: > 16.7 µM
SW-620 colon
  TGI: 10.5 µM
CAKI-1 renal
  TGI: > 100 µM
OVCAR-3 ovarian
  TGI: > 39.5 µM
SK-MEL-28 melanoma
  TGI: 4.26 µM
UACC-257 melanoma
  TGI: 52.8 µM
DMS 114 small cell lung
  TGI: 8.53 µM
HOP-62 NSCLC
  TGI: 19.3 µM
UACC-62 melanoma
  TGI: 8.85 µM
OVCAR-4 ovarian
  TGI: 65.4 µM
RXF 393 renal
  TGI: 4.17 µM
COLO 205 colon
  TGI: 3.27 µM
SF-268 CNS
  TGI: > 21.9 µM
SK-MEL-2 melanoma
  TGI: 3.95 µM
EKVX NSCLC
  TGI: 24.7 µM
DLD-1 colon
  TGI: 4.83 µM
NCI-H226 lung
  TGI: 5.72 µM
MDA-MB-231 breast
  TGI: 31.6 µM
KM20L2 colon
  TGI: 1.35 µM
NCI/ADR-RES ovarian
  TGI: > 29.1 µM
SNB-75 CNS
  TGI: 4.46 µM
CCRF-CEM leukemia
  TGI: 7.4 µM
HCT-15 colon
  TGI: 55.7 µM
MALME-3M melanoma
  TGI: 2.18 µM
HOP-18 NSCLC
  TGI: 0.793 µM
SN12C renal
  TGI: 11.4 µM
MDA-MB-435
  TGI: 13.2 µM
HCT-116 colon
  TGI: > 37.5 µM
A498 renal
  TGI: 12.5 µM
RPMI-8226 leukemia
  TGI: > 100 µM
MDA-N
  TGI: > 75.2 µM
NCI-H460 lung
  TGI: > 54 µM
M19-MEL melanoma
  TGI: 79 µM
SF-295 CNS
  TGI: 28.9 µM
SK-MEL-5 melanoma
  TGI: 10.9 µM
IGROV1 ovarian
  TGI: > 28.8 µM
NCI-H23 lung
  TGI: 2.74 µM
SR leukemia
  TGI: > 100 µM

## CC(=O)OCc1ncccc1C(OC(C)=O)OC(C)=O
NCI-H522 lung
  TGI: > 100 µM
OVCAR-8 ovarian
  TGI: > 100 µM
M14 melanoma
  TGI: > 100 µM
K-562 leukemia
  TGI: > 100 µM
OVCAR-5 ovarian
  TGI: > 100 µM
HL-60(TB) leukemia
  TGI: > 100 µM
LOX IMVI melanoma
  TGI: > 100 µM
U251 CNS
  TGI: > 100 µM
KM12 colon
  TGI: > 100 µM
TK-10 renal
  TGI: > 100 µM
SK-OV-3 ovarian
  TGI: > 100 µM
A549 NSCLC
  TGI: > 100 µM
DMS 273 small cell lung
  TGI: > 100 µM
UO-31 renal
  TGI: > 100 µM
SF-539 CNS
  TGI: > 100 µM
LXFL 529 NSCLC
  TGI: > 100 µM
ACHN renal
  TGI: > 100 µM
786-0 renal
  TGI: > 100 µM
HOP-92 NSCLC
  TGI: > 100 µM
MOLT-4 leukemia
  TGI: > 100 µM
HT29 colon
  TGI: > 100 µM
SNB-19 CNS
  TGI: > 100 µM
SW-620 colon
  TGI: > 100 µM
CAKI-1 renal
  TGI: > 100 µM
OVCAR-3 ovarian
  TGI: > 100 µM
SK-MEL-28 melanoma
  TGI: > 100 µM
UACC-257 melanoma
  TGI: > 100 µM
DMS 114 small cell lung
  TGI: > 100 µM
HOP-62 NSCLC
  TGI: > 100 µM
UACC-62 melanoma
  TGI: > 100 µM
OVCAR-4 ovarian
  TGI: > 100 µM
RXF 393 renal
  TGI: > 100 µM
COLO 205 colon
  TGI: > 100 µM
SF-268 CNS
  TGI: > 100 µM
SNB-78 CNS
  TGI: > 100 µM
SK-MEL-2 melanoma
  TGI: > 100 µM
EKVX NSCLC
  TGI: > 100 µM
DLD-1 colon
  TGI: > 100 µM
KM20L2 colon
  TGI: > 100 µM
SNB-75 CNS
  TGI: > 100 µM
CCRF-CEM leukemia
  TGI: > 100 µM
HCT-15 colon
  TGI: > 100 µM
MALME-3M melanoma
  TGI: > 100 µM
HOP-18 NSCLC
  TGI: > 100 µM
SN12C renal
  TGI: > 100 µM
HCT-116 colon
  TGI: > 100 µM
A498 renal
  TGI: > 100 µM
NCI-H460 lung
  TGI: > 100 µM
XF 498 CNS
  TGI: > 100 µM
M19-MEL melanoma
  TGI: > 100 µM
SF-295 CNS
  TGI: > 100 µM
SK-MEL-5 melanoma
  TGI: > 100 µM
IGROV1 ovarian
  TGI: > 100 µM
NCI-H23 lung
  TGI: > 100 µM
SR leukemia
  TGI: > 100 µM
